Assays:
human CYP11B2 = molecular target: T1, human CYP11B2 (Homo sapiens, UniProt P19099); test: Inhibition of hCYP11B2 in transfected V79 cells; assay type: cell-based; conditions: hamster V79 cells expressing human CYP11B2; substrate 11-deoxycorticosterone 200 nM
T1 construct: expressed in transfected cells
T1 sequence (P19099 25-503): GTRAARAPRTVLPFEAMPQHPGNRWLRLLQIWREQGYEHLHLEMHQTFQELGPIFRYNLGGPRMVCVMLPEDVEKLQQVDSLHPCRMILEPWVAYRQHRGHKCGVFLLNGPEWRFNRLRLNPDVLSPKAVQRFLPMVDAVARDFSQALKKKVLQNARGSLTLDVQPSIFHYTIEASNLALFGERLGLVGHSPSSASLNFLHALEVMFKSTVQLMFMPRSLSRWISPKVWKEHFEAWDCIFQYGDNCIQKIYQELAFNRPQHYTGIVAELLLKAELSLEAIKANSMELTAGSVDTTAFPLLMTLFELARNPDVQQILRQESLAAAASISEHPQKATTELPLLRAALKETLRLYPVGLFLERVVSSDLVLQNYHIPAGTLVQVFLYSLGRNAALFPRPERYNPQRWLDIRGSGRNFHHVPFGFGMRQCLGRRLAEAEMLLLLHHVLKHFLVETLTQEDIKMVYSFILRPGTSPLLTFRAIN
In short: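 The substrate (200 nM, 30 min) was added after a 2 hour compound pre-incubation in lentivirus-transduced V79 cells stably expressing human CYP11B2 plus rat NADPH-P450 reductase.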

human CYP11B1 = molecular target: T2, human CYP11B1 (Homo sapiens, UniProt P15538); test: Inhibition of hCYP11B1 in transfected V79 cells; assay type: cell-based; conditions: hamster V79 cells expressing human CYP11B1; substrate 11-deoxycortisol 200 nM
T2 construct: expressed in transfected cells
T2 sequence (P15538 25-503): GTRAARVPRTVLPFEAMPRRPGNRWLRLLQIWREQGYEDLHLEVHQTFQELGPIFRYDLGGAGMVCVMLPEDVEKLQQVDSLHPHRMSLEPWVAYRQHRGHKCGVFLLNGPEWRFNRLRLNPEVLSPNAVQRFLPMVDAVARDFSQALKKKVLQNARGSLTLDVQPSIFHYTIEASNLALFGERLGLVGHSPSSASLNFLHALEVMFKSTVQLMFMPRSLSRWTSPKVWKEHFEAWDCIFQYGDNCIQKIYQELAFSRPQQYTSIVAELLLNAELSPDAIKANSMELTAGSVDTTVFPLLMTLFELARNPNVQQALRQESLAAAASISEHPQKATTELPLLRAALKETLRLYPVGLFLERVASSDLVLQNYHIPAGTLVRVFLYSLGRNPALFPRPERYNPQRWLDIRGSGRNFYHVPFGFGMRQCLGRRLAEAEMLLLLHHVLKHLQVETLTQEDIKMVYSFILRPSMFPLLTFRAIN
In short: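 Reactions started with 200 nM 11-deoxycortisol, ran for 30 min and were stopped with ethyl acetate, after a 2 h compound preincubation. The host was stably transfected V79 hamster cells carrying human CYP11B1 plus rat P450 reductase. Percent inhibition, from LC-MS/MS or HPLC (260 nm) quantitation of substrate and product, gave the IC50.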

Row | Compound | IC50 (human CYP11B2) | IC50 (human CYP11B1)
1 | COc1cccc(CC(=O)N2CCc3c(-c4ccc(C#N)cc4)cncc32)c1 [C68, 4-(1-(2-(3-Bethoxyphenyl)acetyl)-2,3-dihydro-1H-pyrrolo[2,3-c]pyridin-4-yl)benzonitrile] | 0.7 nM | 26 nM
2 | Cc1ccccc1CC(=O)N1CCOc2c(-c3ccc(C#N)cc3)cncc21 [O44, 4-(4-(2-(o-Tolyl)acetyl)-3,4-dihydro-2H-pyrido[4,3-b][1,4]oxazin-8-yl)benzonitrile] | 4.8 nM | 84 nM
3 | CN1CCN(C(=O)c2ccc(F)cc2)c2cncc(-c3ccc(C#N)cc3)c21 [N5, 4-(4-(4-Fluorobenzoyl)-1-methyl-1,2,3,4-tetrahydropyrido[3,4-b]pyrazin-8-yl)benzonitrile] | 7.8 nM | 48 nM
4 | N#Cc1ccc(-c2cncc3c2OCCN3C(=O)C2CN(C(=O)c3ccc(F)cc3)C2)cc1 [O57, 4-(4-(1-(4-Fluorobenzoyl)azetidine-3-carbonyl)-3,4-dihydro-2H-pyrido[4,3-b][1,4]oxazin-8-yl)benzonitrile] | 1.6 nM | 102 nM
5 | COc1ccccc1C(=O)n1ccc2c(-c3ccc(C#N)cc3)cncc21 [E25, 4-(1-(2-Methoxybenzoyl)-1H-pyrrolo[2,3-c]pyridin-4-yl)benzonitrile] | 2.1 nM | 98 nM
6 | COc1ccc(CN2CC(S(=O)(=O)N3CCOc4c(-c5ccc(C#N)cc5)cncc43)C2)cc1 [O125, 4-(4-((1-(4-Methoxybenzyl)azetidin-3-yl)sulfonyl)-3,4-dihydro-2H-pyrido[4,3-b][1,4]oxazin-8-yl)benzonitrile] | 0.5 nM | 28 nM
7 | COc1cccc(CCC(=O)N2CCOc3c(-c4ccc(C#N)cc4)cncc32)c1 [O52, 4-(4-(3-(3-Methoxyphenyl)propanoyl)-3,4-dihydro-2H-pyrido[4,3-b][1,4]oxazin-8-yl)benzonitrile] | 1.1 nM | 51 nM
8 | N#Cc1ccc(-c2cncc3c2OCCN3C(=O)c2ccc(F)cc2)cc1 [O19, 4-(4-(4-Fluorobenzoyl)-3,4-dihydro-2H-pyrido[4,3-b][1,4]oxazin-8-yl)benzonitrile] | 23.1 nM | 1350 nM
9 | N#Cc1ccc(-c2cncc3c2CCN3C(=O)c2ccc(C(F)(F)F)cc2)cc1 [C22, 4-(1-(4-(Trifluoromethyl)benzoyl)-2,3-dihydro-1H-pyrrolo[2,3-c]pyridin-4-yl)benzonitrile] | 2 nM | 112 nM
10 | N#Cc1ccc(-c2cncc3c2OCCN3C(=O)CCc2cccc(Cl)c2)cc1 [O50, 4-(4-(3-(3-Chlorophenyl)propanoyl)-3,4-dihydro-2H-pyrido[4,3-b][1,4]oxazin-8-yl) benzonitrile] | 5 nM | 42 nM
11 | N#Cc1ccc(-c2cncc3c2ccn3C(=O)c2ccccc2C(F)(F)F)cc1 [E26, 4-(1-(2-(Trifluoromethyl)benzoyl)-1H-pyrrolo[2,3-c]pyridin-4-yl)benzonitrile] | 3.9 nM | 88 nM
12 | Cn1ncc2cc(-c3cncc4c3CCN4C(=O)c3ccccc3F)ccc21 [C51, (2-Fluorophenyl)(4-(1-methyl-1H-indazol-5-yl)-2,3-dihydro-1H-pyrrolo[2,3-c]pyridin-1-yl)methanone] | 23 nM | 4250 nM
13 | N#CN1CCN(c2cncc3c2OCCN3C(=O)C2CN(Cc3cccc(F)c3)C2)C(=O)C1 [O99, 4-(4-(1-(3-Fluorobenzyl)azetidine-3-carbonyl)-3,4-dihydro-2H-pyrido[4,3-b][1,4]oxazin-8-yl)-3-oxopiperazine-1-carbonitrile] | 39 nM | 652 nM
14 | N#Cc1ccc(-c2cncc3c2OCCN3C(=O)CCc2ccc(C(F)(F)F)cc2)cc1 [O53, 4-(4-(3-(4-(Trifluoromethyl)phenyl)propanoyl)-3,4-dihydro-2H-pyrido[4,3-b][1,4]oxazin-8-yl)benzonitrile] | 8.2 nM | 55 nM

Now from value to compound:

Row | IC50 (human CYP11B2) | IC50 (human CYP11B1) | Compound
15 | 0.2 nM | 1.8 nM | COc1ccc(S(=O)(=O)N2CCSc3c(-c4ccc(Cl)cc4)cncc32)cc1 [S28, 8-(4-Chlorophenyl)-4-((4-methoxyphenyl)sulfonyl)-3,4-dihydro-2H-pyrido[4,3-b][1,4]thia zine]
16 | 1.3 nM | 1.7 nM | N#Cc1ccc(-c2cncc3c2CCN3S(=O)(=O)c2cccnc2)cc1 [C10, 4-(1-(Pyridin-3-ylsulfonyl)-2,3-dihydro-1H-pyrrolo[2,3-c]pyridin-4-yl)benzonitrile]
17 | 0.14 nM | 0.1 nM | N#Cc1ccc(-c2cncc3c2OCCN3S(=O)(=O)c2cccc(F)c2)cc1 [O3, 4-(4-((3-Fluorophenyl)sulfonyl)-3,4-dihydro-2H-pyrido[4,3-b][1,4]oxazin-8-yl)benzonitrile]
18 | 2.8 nM | 322 nM | N#Cc1ccc(S(=O)(=O)N2CCSc3c(-c4ccc5ncsc5c4)cncc32)cc1 [S46, 4-((8-(Benzo[d]thiazol-6-yl)-2,3-dihydro-4H-pyrido[4,3-b][1,4]thiazin-4-yl)sulfonyl)benzonitrile]
19 | 0.5 nM | 0.4 nM | Cc1ccc(S(=O)(=O)n2ccc3c(-c4ccc(C#N)cc4)cncc32)cc1 [E2, 4-(1-Tosyl-1H-pyrrolo[2,3-c]pyridin-4-yl)benzonitrile]
20 | 2 nM | 181 nM | N#Cc1ccc(-c2cncc3c2OCCN3C(=O)C2CN(S(=O)(=O)c3cccc([N+](=O)[O-])c3)C2)cc1 [O63, 4-(4-(1-((3-Nitrophenyl)sulfonyl)azetidine-3-carbonyl)-3,4-dihydro-2H-pyrido[4,3-b][1,4]oxazin-8-yl)benzonitrile]
21 | 30 nM | 988 nM | N#Cc1ccc(-c2cncc3c2CCN3C(=O)c2ccc(F)cc2)cc1 [C25, 4-(1-(4-Fluorobenzoyl)-2,3-dihydro-1H-pyrrolo[2,3-c]pyridin-4-yl)benzonitrile]
22 | 0.86 nM | 28 nM | N#Cc1ccc(-c2cncc3c2SCCN3S(=O)(=O)c2cccc3cccnc23)cc1 [S26, 4-(4-(Quinolin-8-ylsulfonyl)-3,4-dihydro-2H-pyrido[4,3-b][1,4]thiazin-8-yl)benzonitrile]
23 | 0.11 nM | 1.1 nM | N#Cc1ccc(-c2cncc3c2OCCN3S(=O)(=O)c2ccc([N+](=O)[O-])cc2)cc1 [O9, 4-(4-((4-Nitrophenyl)sulfonyl)-3,4-dihydro-2H-pyrido[4,3-b][1,4]oxazin-8-yl)benzonitrile]
24 | 19.3 nM | 484 nM | N#Cc1ccc(-c2cncc3c2OCCN3S(=O)(=O)C2CN(C(=O)c3cccc(C#N)c3)C2)cc1 [O110, 4-(4-((1-(3-Cyanobenzoyl)azetidin-3-yl)sulfonyl)-3,4-dihydro-2H-pyrido[4,3-b][1,4]oxazin-8-yl)benzonitrile]
25 | 53 nM | 1740 nM | COc1ccc(C(=O)N2CCSc3c(-c4ccc(C#N)cc4)cncc32)cc1 [S6, 4-(4-(4-Methoxybenzoyl)-3,4-dihydro-2H-pyrido[4,3-b][1,4]thiazin-8-yl)benzonitrile]
26 | 2.1 nM | 57 nM | N#Cc1ccc(-c2cncc3c2OCCN3C(=O)C2CN(S(=O)(=O)c3ccc(C#N)cc3)C2)cc1 [O69, 4-((3-(8-(4-Cyanophenyl)-3,4-dihydro-2H-pyrido[4,3-b][1,4]oxazine-4-carbonyl)azetidin-1-yl)sulfonyl)benzonitrile]
27 | 29 nM | 1980 nM | O=C(c1ccc(F)cc1)n1ccc2c(-c3ccc4ncsc4c3)cncc21 [E36, (4-(Benzo[d]thiazol-6-yl)-1H-pyrrolo[2,3-c]pyridin-1-yl)(4-fluorophenyl)methanone]
28 | 1 nM | 0.7 nM | N#Cc1ccc(-c2cncc3c2CCN3S(=O)(=O)c2cccc3cccnc23)cc1 [C11, 4-(1-(Quinolin-8-ylsulfonyl)-2,3-dihydro-1H-pyrrolo[2,3-c]pyridin-4-yl)benzonitrile]
29 | 4.5 nM | 495 nM | COc1cccc(S(=O)(=O)N2CC(C(=O)N3CCOc4c(-c5ccc(C#N)cc5)cncc43)C2)c1 [O66, 4-(4-(1-((3-Methoxyphenyl)sulfonyl)azetidine-3-carbonyl)-3,4-dihydro-2H-pyrido[4,3-b][1, 4]oxazin-8-yl)benzonitrile]
